From patent publication US20240316061A1, “BET INHIBITORS FOR TREATING PAB1 DEFICIENT CANCER” (INSTITUT CURIE, priority 2021, published 2024)

Columns and labels:
Type in all cases: cell-based
[1] = tested on: isogenic HAP1 cells (Wild-type or BAP1 knockout); assay: Proliferation of isogenic HAP1 cells exposed to BI894999, CellTiter-Glo; conditions: increasing concentration for 7 days; FIG. 3
Procedure: Proliferation of isogenic HAP1 cells (Wild-type or BAP1 knockout) exposed to increasing concentration of the BET inhibitor BI894999 for 7 days. Proliferation was measured using the CellTiter-Glo Luminescent Cell Viability assay.

[2] = tested on: human BAP1 cells either wild type or BAP1 knockout; assay: Proliferation of BAP1 wild type or BAP1 knockout cells exposed to OTX015, Cell Titer Glow; conditions: increasing dose for 12 days, compound renewed after 6 days; FIG. 1
Procedure: Proliferation of human BAP1 cells either wild type or BAP1 knockout (generated by genome editing) exposed to increasing dose of OTX015 for 12 days Cells were grown in IMDM and compound was renewed after 6 days. Cell viability was measured using Cell Titer Glow.

[3] = tested on: uveal melanoma derived cells wild type for BAP1 (MP41 and MM66) or BAP1 inactivated (MP46 and MP38); assay: Proliferation of uveal melanoma derived cells exposed to OTX015, MTT assay; conditions: increasing concentration for 12 days; MP46, MP38 vs MP41, MM66; FIG. 2
Procedure: Proliferation of uveal melanoma derived cells either wild type for BAP1 (MP41 and MM66) or for which BAP1 is inactivated (MP46 and MP38). Cells were exposed to increasing concentration of OTX015 for 12 days, Proliferation was measured using the MTT assay.

Row | Compound | Dose response (proliferation) in BAP1 knockout HAP1 cells compared to HAP1 cells expressing BAP1 [1] | Dose response (proliferation) of BAP1 KO cells compared to BAP1 WT cells [2] | Dose response (proliferation) in BAP1 mutated UM derived cells compared to UM cells expressing BAP1 [3]
1 | CNc1nc(-c2nc3ccc(N4CCN(C)CC4)cc3n2Cc2ccccc2)cn2c(C)nnc12 [BI894999] | enhanced dose response | – | –
2 | Cc1sc2c(c1C)C(c1ccc(Cl)cc1)=N[C@@H](CC(=O)Nc1ccc(O)cc1)c1nnc(C)n1-2 [OTX015] | – | highest dose response | enhanced dose response
